Molecules are shown by their SMILES. pKd: −log10 of the molar value. Where two headings read alike, the source gives them in different places.

In the experiment the target is T1, fascin-1 (Homo sapiens, UniProt Q16658).
T1 construct: gene FSCN1; recombinant, E. coli BL21(DE3), pGEX-5X-2 GST fusion, GST cut off with thrombin; monomer
The experiment in a line: isothermal titration calorimetry. It counts as binding. A general note: ITC needs no label: the signal is the heat of the interaction.

Turning to `Cc1ccc2nc(-c3ccc(NCCOCCOCCOCCOCCOCCO)cc3)sc2c1` [BTA-EG6], the pKd (read-out: Kd) was approximately 5.30.

Consider `O=C(Nc1nn(Cc2ccc(C(F)(F)F)cc2)c2ccccc12)c1ccco1` [G2], for which the Kd result (50 mM Hepes pH 7.5, 150 mM NaCl, 25 °C, proposed site 2) is “Kd values of G2 to WT fascin-1 and seven fascin-1 mutant proteins”.

The term pKd denotes −log10 of the Kd, conventionally taken in molar units.

The values above are taken from PMC12926044, “Nootropic benzothiazoles promote dendritic spine formation by targeting fascin-1” (The Journal of Biological Chemistry, 2025).
